IC50 and EC50 data for 19 molecules are collected here from patent US8987257B2 (Novartis AG, priority 2011, dated 2015).

Molecules are shown by their SMILES. Some results are limits rather than exact numbers.

The target in one experiment is FRAP1/mTOR (Homo sapiens (Human), UniProt P42345). Description: Test 2: mTOR Biochemical Assay (FRAP1/mTOR TR-FRET tracer assay). Type of experiment: binding. The settings on record: mTOR Kinase Tracer 314. Background: In TR-FRET formats the signal depends on donor and acceptor labels being close together.
The test system of experiment [1] is constitutively active mTOR. Description: Test 3: TSC Assay (high content imaging of phospho-S6 (240/244) in TSC1−/− MEFs). Type of experiment: cell-based. The settings on record: Mus musculus, pS6 240/244 staining, 2 hrs compound treatment.
Procedure: This assay generates IC50 values for compounds that inhibit mTOR.
Quantification of pS6 Staining Using High-Content Imaging and Analysis
Day 0: Cell plating. Subconfluent TSC1−/− MEFs are harvested by trypsinization, resuspended in growth medium, and counted. […] The plates are briefly spun down and placed at 37° C. and 5% CO2. • 2. Day 1: Cell plates are washed into a PBS starve solution (contains glucose, sodium bicarbonate, HEPES and phenol red) using a 384-well plate washer. The wash protocol aspirates the volume down to 30 μL/well before dispensing 60 μL/well of the PBS starve solution. Aspiration and dispensing steps are repeated 8 times and a final volume of 30 μL/well is left. The cell plates are placed at 37° C. and 5% CO2 for 2 hrs. • Compound treatment. Compound dose responses are prepared in DMSO. The dose responses are then diluted 1:50 in medium. 10 ul of the diluted compound is added to 30 ul of cells, yielding a final 1:200 dilution of the original compound and final of 0.5% DMSO. Compound-treatments are performed in triplicates. The plates are placed at 37° C. and 5% CO2 for 2 hrs. Cells are then fixed by adding 10 μL/well 5× concentrated Mirsky's fixative. […] The cell plates are briefly spun down and incubated for 1 h at room temperature. Cells are then washed using a 384-well plate washer using a protocol which aspirates the volume down to 30 μL/well before dispensing 60 μL/well 1×TBS. Aspiration and dispensing steps are repeated 8 times and then an additional aspiration step leaves a final volume of 10 μL/well. Block buffer (1×TBS+0.1% Triton X-100+0.1% BSA) is then added at 25 μL/well and the plates are incubated at room temperature for 30 min. The cell plates are then aspirated down to 10 μL/well. […] Plates are incubated overnight at 4° C. • 3. […] The bottom of the plate is cleaned with 70% ethanol and then imaged using the InCell 1000 automated epifluorescence microscope. […] Cy5 images are acquired using an excitation of 620 nm (Chroma 620—60× filter), an emission of 700 nm (Chroma HQ700—75M filter) and an exposure time of 200 ms. A double band pass mirror is used for all images. • 4. Image analysis: The InCell Analysis software is used to analyze the images using the Dual Object algorithm. […] The Cy5 fluorescence intensity inside the collar is measured (cell intensity) and results are reported on an “Average per cell” basis. • 5. IC50 calculation: IC50s are calculated by plotting the cell intensity values on the y-axis with dose response values on the x-axis. IC50 values represent compound potency against mTOR.
The target in a further experiment is PI3Kα (Homo sapiens (Human), UniProt P42336). Description: Test 1: PI3 Kinase Assay (PI3K KinaseGlo assay). Type of experiment: biochemical. As to conditions: 1 μM ATP. Background: Kinase-Glo measures the ATP left after a reaction by luminescence.
In another experiment the test system is H4 mCherry-GFP-LC3 cells. Description: Test 4: Autophagy Assay (mCherry-GFP-LC3 reporter, high-content imaging). Type of experiment: cell-based. The settings on record: Homo sapiens, 16-18 h. The text has this: Autophagy is a catabolic pathway that degrades bulk cytosol in lysosomal compartments enabling amino acids and fatty acids to be recycled. […] To quantify autophagy induction by mTOR inhibitors, we use a mCherry-GFP-LC3 reporter which is amenable to retroviral delivery into mammalian cells, stable expression and analysis by fluorescence microscopy.
Described hereinafter is an imaging protocol and image recognition algorithm to visualize and measure changes in the autophagic pathway.
Quantification of Autophagy Using High-Content Imaging and Analysis
• 1. Day 0: Cell plating. Subconfluent H4 mCherry-GFP-LC3 cells are harvested by trypsinization, resuspended in growth medium, and counted (H4 cells: Human neuroglioma cell line (ATCC)). A cell suspension of 66′000 cells/mL is prepared and 30 μL are added into the wells of a 384-well plate using an electronic multichannel pipette. […] The cell plates are briefly spun down and placed at 37° C. and 5% CO2. • 2. Day 1: Compound treatment. Compound dose responses are prepared in DMSO. The dose responses are then diluted 1:50 in medium. 10 ul of the diluted compound is added to 30 ul of cells, yielding a final 1:200 dilution of the original compound and final of 0.5% DMSO. Compound-treatments are performed in triplicates. The 384-well plates are placed at 37° C. and 5% CO2. Compound treatment is performed for 16-18 h (see Note 1). • 3. Day 2: Cell fixation. Cells are fixed by adding 10 μL/well 5× concentrated Mirsky's fixative supplemented with 25 μg/mL Hoechst33342. […] The 384-well plate is briefly spun down and incubated for 1 h at room temperature. Cells are then washed using a 384-well plate washer using a protocol which aspirates the volume down to 10 μL/well before dispensing 100 μL/well 1×TBS. Aspiration and dispensing steps are repeated 4 times and a final volume of 100 μL/well is left. The plate is sealed using an adhesive PCR foil. • 4. Imaging. The bottom of the plate is cleaned with 70% ethanol and then imaged using the InCell 1000 automated epifluorescence microscope. 20× magnification is used and 4 different areas (fields) are imaged per well, this typically captures a total of around 400 cells per well. Hoechst33342 images are acquired using an excitation of 360 nm (D360—40× filter), an emission of 460 nm (HQ460—40M filter) and an exposure time of 150 ms. GFP images are acquired using an excitation of 475 nm (S47520× filter), an emission of 535 nm (HQ535—50M filter) and an exposure time of 1 s. mCherry images are acquired using an excitation of 535 nm (HQ535—50× filter), an emission of 620 nm (HQ620—60M filter) and an exposure time of 1 s. A quadruple band pass mirror is used for all images. • 5. Image analysis. The InCell Analysis software is used to analyze the images using the Multi Target Analysis algorithm. First, nuclei are detected in the Hoechst33342 image using top-hat segmentation and a minimal nuclear area of 50 μm^2. Cells are defined using a collar of 10 μm around the nuclei. Second, puncta (organelles) are identified in the mCherry image inside the cells using multi-top-hat segmentation. Third, the mask of the mCherry puncta is transferred onto the GFP image. Fourth, the GFP fluorescence intensity inside the mCherry puncta mask is measured (reference intensity). • 6. The ‘organelles’ parameter reflects mCherry-positive puncta of the mCherry-GFP-LC3 reporter and is used to calculate ‘LC3 puncta/cell’. For this purpose, the number of organelles is calculated per cell and averaged over all the cells in a given well (average per cell basis). mCherry-positive LC3 puncta numbers (y-axis) are plotted against the compound dose response values (x-axis) and EC50 values are calculated for each compound. EC50 values represent compound potency in terms of autophagy activation (e.g. increase in mCherry-positive LC3 puncta count). Notes • 1. Autophagy-modulation and redistribution of mCherry-GFP-LC3 can be already observed after a compound treatment time of 3-4 h. […]

Setting [2] is: Table 1, mCherry-positive LC3 puncta/cell.
Setting [3] is: Table 4 (unit inferred), mCherry-positive LC3 puncta/cell.

Chain of FRAP1/mTOR (P42345 1360-2549): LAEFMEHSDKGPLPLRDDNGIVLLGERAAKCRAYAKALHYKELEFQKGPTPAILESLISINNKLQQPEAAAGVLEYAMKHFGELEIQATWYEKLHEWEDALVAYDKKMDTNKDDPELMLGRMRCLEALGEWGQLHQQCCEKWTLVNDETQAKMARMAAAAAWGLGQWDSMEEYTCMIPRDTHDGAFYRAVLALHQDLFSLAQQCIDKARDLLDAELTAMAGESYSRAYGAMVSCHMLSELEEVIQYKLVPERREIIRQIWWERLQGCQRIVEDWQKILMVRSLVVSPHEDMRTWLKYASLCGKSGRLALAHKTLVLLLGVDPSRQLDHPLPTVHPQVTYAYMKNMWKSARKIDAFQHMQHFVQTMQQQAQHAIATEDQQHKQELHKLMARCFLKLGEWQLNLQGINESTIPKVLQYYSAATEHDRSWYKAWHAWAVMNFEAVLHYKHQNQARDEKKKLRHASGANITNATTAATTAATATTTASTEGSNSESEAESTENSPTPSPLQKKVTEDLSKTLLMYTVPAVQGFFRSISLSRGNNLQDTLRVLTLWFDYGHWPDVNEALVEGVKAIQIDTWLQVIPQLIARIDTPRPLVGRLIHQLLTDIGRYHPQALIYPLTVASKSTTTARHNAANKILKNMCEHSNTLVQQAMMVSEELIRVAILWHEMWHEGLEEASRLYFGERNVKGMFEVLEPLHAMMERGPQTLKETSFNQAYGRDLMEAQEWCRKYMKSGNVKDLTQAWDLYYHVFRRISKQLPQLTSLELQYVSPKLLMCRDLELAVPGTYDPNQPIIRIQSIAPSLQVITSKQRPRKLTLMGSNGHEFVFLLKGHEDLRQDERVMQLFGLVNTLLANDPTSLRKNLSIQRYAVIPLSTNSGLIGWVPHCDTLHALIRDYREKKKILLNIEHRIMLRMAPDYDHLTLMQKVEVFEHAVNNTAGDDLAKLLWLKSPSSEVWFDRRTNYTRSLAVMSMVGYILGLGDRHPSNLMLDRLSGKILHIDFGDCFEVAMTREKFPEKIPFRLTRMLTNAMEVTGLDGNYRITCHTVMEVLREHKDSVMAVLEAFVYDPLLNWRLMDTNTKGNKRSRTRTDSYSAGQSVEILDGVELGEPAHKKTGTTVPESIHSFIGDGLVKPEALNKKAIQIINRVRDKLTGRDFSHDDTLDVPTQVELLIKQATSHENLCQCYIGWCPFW
Chain of PI3Kα (P42336 other isoform, or with tags, fused parts or gaps): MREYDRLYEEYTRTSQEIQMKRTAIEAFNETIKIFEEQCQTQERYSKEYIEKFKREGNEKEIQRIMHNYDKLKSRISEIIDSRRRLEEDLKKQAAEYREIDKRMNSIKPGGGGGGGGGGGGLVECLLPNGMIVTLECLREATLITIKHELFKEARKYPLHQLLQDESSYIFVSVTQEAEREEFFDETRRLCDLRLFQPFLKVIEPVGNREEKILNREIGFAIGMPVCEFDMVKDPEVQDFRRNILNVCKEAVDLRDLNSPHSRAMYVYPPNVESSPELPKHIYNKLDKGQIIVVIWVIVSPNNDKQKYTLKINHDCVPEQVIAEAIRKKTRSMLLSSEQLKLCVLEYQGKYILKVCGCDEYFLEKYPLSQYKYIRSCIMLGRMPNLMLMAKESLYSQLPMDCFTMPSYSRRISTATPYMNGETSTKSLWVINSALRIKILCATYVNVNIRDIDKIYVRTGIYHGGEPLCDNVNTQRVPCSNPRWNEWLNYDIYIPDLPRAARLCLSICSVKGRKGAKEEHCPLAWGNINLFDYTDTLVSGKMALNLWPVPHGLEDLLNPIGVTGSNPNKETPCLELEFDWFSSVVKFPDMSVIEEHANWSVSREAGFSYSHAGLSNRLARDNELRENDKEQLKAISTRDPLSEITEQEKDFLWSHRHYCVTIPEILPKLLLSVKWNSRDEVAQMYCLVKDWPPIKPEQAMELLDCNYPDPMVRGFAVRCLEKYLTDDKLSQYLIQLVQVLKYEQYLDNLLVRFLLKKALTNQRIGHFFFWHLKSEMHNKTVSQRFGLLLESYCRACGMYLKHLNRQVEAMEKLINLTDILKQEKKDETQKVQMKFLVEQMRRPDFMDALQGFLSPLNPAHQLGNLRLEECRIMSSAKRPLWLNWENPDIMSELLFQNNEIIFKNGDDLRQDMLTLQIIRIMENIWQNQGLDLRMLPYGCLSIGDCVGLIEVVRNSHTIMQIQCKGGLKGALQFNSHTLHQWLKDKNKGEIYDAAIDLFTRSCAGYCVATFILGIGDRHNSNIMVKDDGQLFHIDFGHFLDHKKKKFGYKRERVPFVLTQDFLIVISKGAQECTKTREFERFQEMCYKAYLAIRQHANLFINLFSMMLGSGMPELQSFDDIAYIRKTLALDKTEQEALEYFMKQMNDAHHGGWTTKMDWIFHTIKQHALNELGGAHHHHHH
Procedure for FRAP1/mTOR: IC50s for mTOR interacting compounds were assessed using the FRAP1/mTOR TR-FRET tracer assay (Invitrogen by Life Technologies). […] Compounds were serially diluted in DMSO (12-point, 4× dilution factor) and 1 μL of diluted compound was then added to each well and mixed by pipetting using a Biomek FX (Beckman Coulter).
Procedure for PI3Kα: L-a-phosphatidylinositol (PI), provided as 10 mg/ml solution in methanol, was transferred into a glass tube and dried under nitrogen beam. It was then resuspended in 3% OctylGlucoside (OG) by vortexing and stored at 4° C. The KinaseGlo Luminescent Kinase Assay (Promega, Madison/WI, USA) is a homogeneous HTS method of measuring kinase activity by quantifying the amount of ATP remaining in solution following a kinase reaction.
Kinase reactions were started by addition of 5 μl of ATP-mix containing in a final volume 10 μL 10 mM TRIS-HCl pH 7.5, 3 mM MgCl2, 50 mM NaCl, 0.05% CHAPS, 1 mM DTT and 1 μM ATP, and occurred at room temperature.
The PI3Kα construct is a fusion of p85α iSH2 domain and the respective p110 isoform. The p85α fragment and p110 isoform gene were generated by PCR from first strand cDNA generated by RT-PCR from commercial RNA from placenta, testis and brain as described below.
The p85 fragment was derived from plasmid p1661-2 digested with Nhe/Spe. The p110α fragment derived from its clone was verified by sequencing and used in LR410 as a SpeI/HindIII fragment. For the generation of the baculovirus expression vector LR410 the gateway LR reaction to transfer the insert into the Gateway adapted pBlueBac4.5 (Invitrogen) vector was used. The cloning vector pBlueBac4.5 (Invitrogen) was digested with Nhe/HindIII. […] The two reverse primers overlap and incorporate a 12×Gly linker and the N-terminal sequence of the p110α gene to the SpeI site. The PCR fragment was cloned into pCR2.1 TOPO (Invitrogen). Of the resulting clones, p1661-2 was determined to be correct by sequencing. This plasmid was digested with Nhe and SpeI and the resulting fragment was gel-isolated and purified for sub-cloning.
PI3Kα was purified in two chromatographic steps: immobilized metal affinity chromatography (IMAC) on a Ni sepharose resin (GE Healthcare) and gel filtration utilizing a Superdex 200 26/60 column (GE Healthcare). All buffers were chilled to 4° C. and lysis was performed chilled on ice. Column fractionation was performed at room temperature.

As for `C[C@H]1COCCN1c1nc(N2CCOC[C@@H]2C)c2nc(-c3ccc4cc[nH]c4c3)[nH]c2n1` [Example 14, 8-(1H-Indol-6-yl)-2,6-bis-((S)-3-methyl-morpholin-4-yl)-9H-purine], the IC50 on FRAP1/mTOR is 7 nM; in experiment [1], 349 nM; against PI3Kα, over 9100 nM. The molecule further registered a concentration giving a half-maximal response (EC50) in the experiment with H4 mCherry-GFP-LC3 cells (setting [2]) of 1280 nM.

With `C[C@@H]1COCCN1c1nc(N2CCOC[C@H]2C)c2nc(-c3cccc4[nH]ccc34)[nH]c2n1` [Example 15, 8-(1H-Indol-4-yl)-2,6-bis-((R)-3-methyl-morpholin-4-yl)-9H-purine], the IC50 amounted to 9 nM on FRAP1/mTOR, 62 nM in experiment [1] and 4580 nM against PI3Kα. The midpoint of the response with H4 mCherry-GFP-LC3 cells (setting [2]), the EC50, lay at 1780 nM.

In the case of `C[C@H]1COCCN1c1nc(N2CCC(O)CC2)nc2[nH]c(-c3cccc4[nH]ccc34)nc12` [Example 16, 1-[8-(1H-Indol-4-yl)-6-((S)-3-methyl-morpholin-4-yl)-9H-purin-2-yl]-piperidin-4-ol], the results for the IC50 (on FRAP1/mTOR; in experiment [1]; against PI3Kα) were 160 nM, 460 nM and 7300 nM, respectively. The same molecule yielded a half-maximal effective concentration (EC50) with H4 mCherry-GFP-LC3 cells (setting [2]) of 2000 nM.

Turning to `COc1cc(CO)cc(-c2nc3c(N4CCOC[C@@H]4C)nc(N4CCOC[C@@H]4C)nc3[nH]2)c1` [Example 17, {3-[2,6-Bis-((S)-3-methyl-morpholin-4-yl)-9H-purin-8-yl]-5-methoxy-phenyl}-methanol], the 50% inhibitory concentration (IC50) is 399 nM at FRAP1/mTOR, 1510 nM in experiment [1] and 400 nM at PI3Kα. This molecule registered an EC50 in the experiment with H4 mCherry-GFP-LC3 cells (setting [2]) of 3190 nM.

As for `C[C@@H]1COCCN1c1nc(N2CCOC[C@@H]2C)c2nc(-c3cccc4[nH]ccc34)[nH]c2n1` [Example 18, 8-(1H-Indol-4-yl)-2-((R)-3-methyl-morpholin-4-yl)-6-((S)-3-methyl-morpholin-4-yl)-9H-purine], the IC50 is 46 nM at FRAP1/mTOR, 70 nM in experiment [1] and 5050 nM against PI3Kα. Also, in the experiment on H4 mCherry-GFP-LC3 cells (setting [2]), the midpoint of the response, the EC50, lay at 2500 nM.

For `C[C@@H]1COCCN1c1nc(N2CCOC[C@H]2C)c2nc(-c3cc(CO)ccc3F)[nH]c2n1` [Example 19, {3-[2,6-Bis-((R)-3-methyl-morpholin-4-yl)-9H-purin-8-yl]-4-fluoro-phenyl}-methanol], the values for the IC50 (against FRAP1/mTOR; in experiment [1]; at PI3Kα) were 134 nM, 300 nM and 170 nM, respectively. For the same molecule, the EC50 in the experiment on H4 mCherry-GFP-LC3 cells (setting [2]) is 2000 nM.

In the case of `C[C@@H]1COCCN1c1nc(N2CCOCC2)nc2[nH]c(-c3cccc4[nH]ccc34)nc12` [Example 20, 8-(1H-Indol-4-yl)-6-((R)-3-methyl-morpholin-4-yl)-2-morpholin-4-yl-9H-purine], the IC50 against FRAP1/mTOR worked out at 6 nM; in experiment [1], 90 nM; at PI3Kα, 6050 nM. The EC50 with H4 mCherry-GFP-LC3 cells (setting [2]) came to 452 nM.

In the case of `C[C@@H]1COCCN1c1nc(N2CCOCC2)nc2[nH]c(-c3ccc4cc[nH]c4c3)nc12` [Example 21, 8-(1H-Indol-6-yl)-6-((R)-3-methyl-morpholin-4-yl)-2-morpholin-4-yl-9H-purine], the IC50 at FRAP1/mTOR is 237 nM; in experiment [1], 831 nM; against PI3Kα, over 9100 nM. Further, in the experiment with H4 mCherry-GFP-LC3 cells (setting [2]), the EC50 came to 498 nM.

Consider `C[C@H]1COCCN1c1nc(N2CCOC[C@@H]2C)c2nc(-c3cccc4[nH]ccc34)[nH]c2n1` [Example 22, 8-(1H-Indol-4-yl)-2,6-bis-((S)-3-methyl-morpholin-4-yl)-9H-purine], for which the IC50 on FRAP1/mTOR came out at 5 nM; in experiment [1] it was 113 nM; on PI3Kα it was 5860 nM. In the experiment on H4 mCherry-GFP-LC3 cells (setting [2]), this molecule gave a concentration for a half-maximal effect (EC50) of 761 nM.

For the molecule `C[C@H]1COCCN1c1nc(N2CCOCC2)nc2[nH]c(-c3cccc4[nH]ccc34)nc12` [Example 23, 8-(1H-Indol-4-yl)-6-((S)-3-methyl-morpholin-4-yl)-2-morpholin-4-yl-9H-purine], the values for the IC50 (at FRAP1/mTOR; in experiment [1]; against PI3Kα) were 14 nM, 138 nM and 5510 nM, respectively. Also, a half-maximal response with H4 mCherry-GFP-LC3 cells (setting [2]) (EC50) required 1610 nM.

`COC1CCN(c2nc(N3CCOCC3)c3nc(-c4cccc5[nH]ccc45)[nH]c3n2)CC1` [Example 25, 8-(1H-Indol-4-yl)-2-(4-methoxy-piperidin-1-yl)-6-morpholin-4-yl-9H-purine]: the IC50 was 172 nM against FRAP1/mTOR, 452 nM in experiment [1] and 2070 nM at PI3Kα. This molecule displayed an EC50 with H4 mCherry-GFP-LC3 cells (setting [2]) of over 700 nM.

Turning to `c1cc(-c2nc3c(N4CCOCC4)nc(N4CCOCC4)nc3[nH]2)c2cc[nH]c2c1` [Example 26, 8-(1H-Indol-4-yl)-2,6-di-morpholin-4-yl-9H-purine], the IC50 worked out at 8 nM at FRAP1/mTOR, 81 nM in experiment [1] and 570 nM at PI3Kα. Moreover, in the experiment on H4 mCherry-GFP-LC3 cells (setting [2]), the EC50 was found to be 184 nM.

As to `c1cc(-c2nc3c(N4CCOCC4)nc(N4CCOCC4)nc3[nH]2)c2cn[nH]c2c1` [Example 27, 8-(1H-Indazol-4-yl)-2,6-di-morpholin-4-yl-9H-purine], the 50% inhibitory concentration (IC50) at FRAP1/mTOR worked out at 340 nM; in experiment [1], 7190 nM; against PI3Kα it was 40 nM. For the same molecule, in the experiment with H4 mCherry-GFP-LC3 cells (setting [2]), the EC50 came to 5930 nM.

Turning to `c1cc2ccc(-c3nc4c(N5CCOCC5)nc(N5CCOCC5)nc4[nH]3)cc2[nH]1` [Example 28, 8-(1H-Indol-6-yl)-2,6-di-morpholin-4-yl-9H-purine], the IC50 on FRAP1/mTOR stood at 372 nM; in experiment [1] it was 458 nM; against PI3Kα, 9050 nM. This molecule had a concentration giving a half-maximal response (EC50) in the experiment with H4 mCherry-GFP-LC3 cells (setting [2]) of over 200 nM.

For `Nc1cccc(-c2nc3c(N4CCOCC4)nc(N4CCOCC4)nc3[nH]2)c1` [Example 29, 3-(2,6-Di-morpholin-4-yl-9H-purin-8-yl)-phenylamine], the IC50 at FRAP1/mTOR stood at 1210 nM; in experiment [1], 2080 nM; at PI3Kα, 3860 nM. In the experiment on H4 mCherry-GFP-LC3 cells (setting [2]), the half-maximal effective concentration (EC50) was over 5000 nM.

Consider `CC(=O)Nc1cccc(-c2nc3c(N4CCOCC4)nc(N4CCOCC4)nc3[nH]2)c1` [Example 30, N-[3-(2,6-Di-morpholin-4-yl-9H-purin-8-yl)-phenyl]-acetamide], for which the IC50 turned out to be 1450 nM against FRAP1/mTOR, 1520 nM in experiment [1] and 3010 nM against PI3Kα. Besides, in the experiment with H4 mCherry-GFP-LC3 cells (setting [2]), the concentration giving a half-maximal response (EC50) was over 2000 nM.

In the case of `CS(=O)(=O)Nc1cccc(-c2nc3c(N4CCOCC4)nc(N4CCOCC4)nc3[nH]2)c1` [Example 33, N-[3-(2,6-Di-morpholin-4-yl-9H-purin-8-yl)-phenyl]-methanesulfonamide], the half-maximal inhibitory concentration (IC50) against FRAP1/mTOR was 380 nM; in experiment [1], 2990 nM; on PI3Kα, over 9100 nM. The molecule further came in with an EC50 with H4 mCherry-GFP-LC3 cells (setting [2]) of 7730 nM.

Take `CC1(C)COCCN1c1nc(N2CCOCC2)nc2[nH]c(-c3ccc4cc[nH]c4c3)nc12` [Example 39, 6-(3,3-Dimethyl-morpholin-4-yl)-8-(1H-indol-6-yl)-2-morpholin-4-yl-9H-purine]: the results for the IC50 (against FRAP1/mTOR; in experiment [1]; against PI3Kα) were 160 nM, 146 nM and 2530 nM, respectively. This molecule gave a half-maximal effective concentration (EC50) in the experiment on H4 mCherry-GFP-LC3 cells (setting [3]) of 2320 nM.

With `CC1(C)COCCN1c1nc(N2CCOCC2)nc2[nH]c(-c3cccc4[nH]ccc34)nc12` [Example 40, 6-(3,3-Dimethyl-morpholin-4-yl)-8-(1H-indol-4-yl)-2-morpholin-4-yl-9H-purine], the IC50 against FRAP1/mTOR was determined as 350 nM; in experiment [1], 841 nM; against PI3Kα it was 6470 nM. For the same molecule, the EC50 in the experiment with H4 mCherry-GFP-LC3 cells (setting [3]) was over 8000 nM.

A word on the IC50: it is the concentration at which inhibition is half-maximal. Read a low IC50 as greater potency. Usually EC50 stands for the concentration giving half of the maximal effect. Lower therefore signals an effect from little substance.
